# Source: US9849116B2 (KNOPP BIOSCIENCES LLC, priority 2008, dated 2017)
# Read-outs that look alike come from different tables or passages of the source.
# What was measured:
# healthy volunteers [1] = assay: clinical
# Experimental: Safety observations included vital signs, physical examination, clinical laboratory tests, ECGs, and adverse event reporting. Blood and urine samples were collected pre-dose and for 72 hours post-dose to assess the pharmacokinetics.
# rats = details: 6 months, 30, 100, 300 mg/kg
# minipigs [2] = tested on: minipigs
# minipigs [3] = details: 6 months
# minipigs [4] = details: ongoing 9-month study past month 7
# healthy volunteers [5] = tested on: healthy volunteers
# Experimental: (§1) The first panel was administered a singe dose of 50 mg, followed 48 hours later by 4½ days of multiple dosing (twice daily) at 50 mg Q12 hours. The second panel was administered a singe dose of 100 mg, followed 48 hours later by 4½ days of multiple dosing (twice daily) at 100 mg Q12 hours. Safety observations included vital signs, physical examination, clinical laboratory tests, ECGs, and adverse event reporting. Blood samples were collected pre-dose on Day 1 and serially for 48 hours post-dose to assess the single-dose pharmacokinetics.
# in vivo [6] = details: male, dog, po
# Experimental: (§2) Three groups of four non-naïve male beagle dogs were used in the study. […] Doses were administered orally by gavage and clinical observations were taken continuously following dosing: hourly for the first four hours, and then twice daily cage-side observations for the duration of the inter-dose or post-dose interval. Observations were made of clinical signs, mortality, injury and availability of food and water. Animals were fasted for 24 hr prior to dosing. Dogs in each group were exposed to only one drug, or the combination; each dose was administered only once, with a subsequent dose administered after a recovery period of 4 days.
# in vivo [7] = details: both, minipig
# in vivo [8] = details: both, minipig; remark: listed apart in the source
# clinical = details: human, plasma
# Experimental: as §1
# [9] = Day 1, 100 mg oral dose, fasted
# [10] = Day 7, 50 mg Q12H on Days 3 through 6 and a single dose on Day 7, fasted
# [11] = Day 7, 100 mg Q12H on Days 3 through 6 and a single dose on Day 7, fasted
# Experimental for male beagle dogs: as §2
smiles,measurement,setting,value
"CCCN[C@@H]1CCc2nc(N)sc2C1 [(R)-pramipexole, (6R)-4,5,6,7-tetrahydro-N6-propyl-2,6-benzothiazole-diamine]",time of maximum concentration post-dose,"healthy volunteers [1]; single oral 50, 150, 300 mg",approximately 2 hours
same,safety and tolerability,"healthy volunteers [1]; single oral doses of 50, 150, 300 mg",safe and well-tolerated
same,human equivalence dose of the MTD,"male beagle dogs; based on dog data, 70 kg human subject","about 3,000 mg"
same,observable effects in dogs,"male beagle dogs; dog, in vivo",no observable effects
same,functional separation between the (S)- and (R)-enantiomers,"male beagle dogs; male, beagle, dog, in vivo, 4 days","10,000-20,000 fold"
same,mortality between the 13-week and 26-week sacrifices,rats,no mortalities at any dose level
same,incidence of emesis (at least one episode),"minipigs [2]; both, minipig, in vivo, 75 mg/kg, 14 days",5 of 8
same,NOAEL,"minipigs [2]; minipigs, 2 weeks (14 days)",greater than or equal to 75 mg/kg
same,mortality and clinical observations between the 13-week and 26-week sacrifices,minipigs [3],no mortalities attributed to test article or significant clinical observations
same,deaths and clinical observations,minipigs [4],no deaths attributed to test article or significant clinical observations
same,increase of AUC(0-12) from Day 1 to Day 7,healthy volunteers [5]; 50 mg Q12H,40%
same,increase of Cmax from Day 1 to Day 7,healthy volunteers [5]; 50 mg Q12H,37%
same,CL/F (mean ± SD),"healthy volunteers [5]; 50 mg Q12H (Day 1), Fasted",571 ± 107 mL/h
same,CL/F (mean ± SD),"healthy volunteers [5]; 50 mg Q12H (Day 7), Fasted",585 ± 81.6 mL/h
same,increase of AUC(0-12) from Day 1 to Day 7,healthy volunteers [5]; 100 mg Q12H,38%
same,increase of Cmax from Day 1 to Day 7,healthy volunteers [5]; 100 mg Q12H,24%
same,CL/F (mean ± SD),"healthy volunteers [5]; 100 mg Q12H (Day 1), Fasted",665 ± 107 mL/h
same,CL/F (mean ± SD),"healthy volunteers [5]; 100 mg Q12H (Day 7), Fasted",684 ± 76.1 mL/h
same,AUC(0−12) (mean ± SD),"healthy volunteers [5]; Day 1, 50 mg oral dose, fasted","1,035 ± 121 h · ng/mL"
same,AUC(0−t) (mean ± SD),"healthy volunteers [5]; Day 1, 50 mg oral dose, fasted","1,463 ± 280 h · ng/mL"
same,AUC(inf) (mean ± SD),"healthy volunteers [5]; Day 1, 50 mg oral dose, fasted","1,502 ± 280 h · ng/mL"
same,CL/F (mean ± SD),"healthy volunteers [5]; Day 1, 50 mg oral dose, fasted",34300 ± 6420 mL/h
same,λz (mean ± SD),"healthy volunteers [5]; Day 1, 50 mg oral dose, fasted",0.1132 ± 0.0230 h⁻¹
same,AUC(0−12) (mean ± SD),healthy volunteers [5]; [9],"1,776 ± 260 h · ng/mL"
same,AUC(0−t) (mean ± SD),healthy volunteers [5]; [9],"2,545 ± 497 h · ng/mL"
same,CL/F (mean ± SD),healthy volunteers [5]; [9],39900 ± 6420 mL/h
same,λz (mean ± SD),healthy volunteers [5]; [9],0.1073 ± 0.0161 h⁻¹
same,AUC(0-12) (mean ± SD),healthy volunteers [5]; [10],"1,449 ± 221 h · ng/mL"
same,CL/F (mean ± SD),healthy volunteers [5]; [10],35100 ± 4900 mL/h
same,λz (mean ± SD),healthy volunteers [5]; [10],0.1025 ± 0.0186 h⁻¹
same,AUC(0-12) (mean ± SD),healthy volunteers [5]; [11],"2,465 ± 299 h · ng/mL"
same,CL/F (mean ± SD),healthy volunteers [5]; [11],41000 ± 4570 mL/h
same,λz (mean ± SD),healthy volunteers [5]; [11],0.0894 ± 0.0117 h⁻¹
same,projected steady-state exposure (AUC),"healthy volunteers [5]; humans, total daily dose 500 mg as 250 mg Q12H","approximately 7,000 h*ng/mL"
same,safety and tolerability,healthy volunteers [5]; multiple oral doses of 50 and 100 mg twice daily,safe and well-tolerated
same,MTD at 4 days,in vivo [6],75 mg/kg
same,NOAEL at 4 days,in vivo [6],25 mg/kg
same,NOAEL at 14 days,in vivo [7],75 mg/kg
same,NOAEL at 3 months,in vivo [8],50 mg/kg
same,Cmax,"clinical; oral, 50 mg",191 ± 20.9 ng/mL
same,Tmax,"clinical; oral, 50 mg",1.75 h
same,Vd/F,"clinical; oral, 50 mg",346 ± 30.1 L
same,AUC(0-t),"clinical; oral, 50 mg, AUC(0-12) (mean ± SD), Day 7, 50 mg Q12H on Days 3 through 6 and a single dose on Day 7, fasted",1450 ng·h/mL
same,AUC(0-t),"clinical; oral, 50 mg, mean exposure AUC(0-12) at Day 7, 50 mg Q12H",1450 ng·h/mL
same,Cmax,"clinical; oral, 100 mg",306 ± 55 ng/mL
same,Tmax,"clinical; oral, 100 mg",2 h
same,AUC(0-t),"clinical; oral, 100 mg, AUC(0-12) (mean ± SD), Day 7, 100 mg Q12H on Days 3 through 6 and a single dose on Day 7, fasted",2460 ng·h/mL
same,AUC(0-t),"clinical; oral, 100 mg, mean exposure AUC(0-12) at Day 7, 100 mg Q12H",2460 ng·h/mL
same,AUC(0-inf),"clinical; po, 50 mg",1500 ng·h/mL
same,Tmax,"clinical; po, 50 mg",1.83 h
same,Vd/F,"clinical; po, 50 mg",306 ± 45.8 L
same,AUC(0-t),"clinical; po, 50 mg, AUC(0−12) (mean ± SD), Day 1, 50 mg oral dose, fasted",1040 ng·h/mL
same,AUC(0-t),"clinical; po, 50 mg, AUC(0−t) (mean ± SD), Day 1, 50 mg oral dose, fasted",1460 ng·h/mL
same,AUC(0-inf),"clinical; po, 100 mg",2570 ng·h/mL
same,Cmax,"clinical; po, 100 mg",248 ± 30.4 ng/mL
same,Tmax,"clinical; po, 100 mg",1.92 h
same,Vd/F,"clinical; po, 100 mg",373 ± 51 L
same,AUC(0-t),"clinical; po, 100 mg, AUC(0−12) (mean ± SD), Day 1, 100 mg oral dose, fasted",1780 ng·h/mL
same,AUC(0-t),"clinical; po, 100 mg, AUC(0−t) (mean ± SD), Day 1, 100 mg oral dose, fasted",2540 ng·h/mL
